Where “and” joins values, the source holds several entries; their conditions need not be identical. Equal values may be shown once. Toxic doses and inconclusive results are not listed. The calls were made as follows: active = survival T/C of 150% or more; inactive = T/C below 125% in these data.
System: P388 leukemia ip, CD2F1 mice, survival T/C
Test: NCI In Vivo Anticancer Drug Screen. Data for tumor model P388 Leukemia (intraperitoneal) in CD2F1 (CDF1) mice
Conditions: endpoint: median survival time, higher = longer survival
Procedure, shortened: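 Mice carrying the transplanted tumor received test compound or vehicle. Survival was recorded in each group, and the value is the treated-group measurement divided by that of the vehicle-treated control group.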

[1] = dose: 50.0 mg/kg/injection, schedule: Q01DX005 (ip), vehicle: Klucel (hydroxypropylcellulose) (HPC)
[2] = dose: 100.0 mg/kg/injection, schedule: Q01DX005 (ip), vehicle: Klucel (hydroxypropylcellulose) (HPC)
[3] = dose: 200.0 mg/kg/injection, schedule: Q01DX005 (ip), vehicle: Klucel (hydroxypropylcellulose) (HPC)
[4] = dose: 25.0 mg/kg/injection, schedule: Q01DX009 (ip), vehicle: saline with Tween-80
[5] = dose: 50.0 mg/kg/injection, schedule: Q01DX009 (ip), vehicle: saline with Tween-80
[6] = dose: 100.0 mg/kg/injection, schedule: Q01DX009 (ip), vehicle: saline with Tween-80
[7] = dose: 60.0 mg/kg/injection, schedule: Q01DX005 (ip), vehicle: saline with Tween-80
[8] = dose: 120.0 mg/kg/injection, schedule: Q01DX005 (ip), vehicle: saline with Tween-80
[9] = dose: 240.0 mg/kg/injection, schedule: Q01DX005 (ip), vehicle: saline with Tween-80
[10] = dose: 200.0 mg/kg/injection, schedule: Q01DX009 (ip), vehicle: saline with Tween-80
[11] = dose: 12.5 mg/kg/injection, schedule: Q01DX009 (ip), vehicle: saline with Tween-80
[12] = dose: 50.0 mg/kg/injection, schedule: Q01DX005 (ip), vehicle: saline with Tween-80
[13] = dose: 100.0 mg/kg/injection, schedule: Q01DX005 (ip), vehicle: saline with Tween-80
[14] = dose: 200.0 mg/kg/injection, schedule: Q01DX005 (ip), vehicle: saline with Tween-80
[15] = dose: 6.25 mg/kg/injection, schedule: Q01DX009 (ip), vehicle: saline with Tween-80
[16] = dose: 100.0 mg/kg/injection, schedule: Q04DX002 (ip), vehicle: saline with Tween-80
[17] = dose: 200.0 mg/kg/injection, schedule: Q04DX002 (ip), vehicle: saline with Tween-80
[18] = dose: 400.0 mg/kg/injection, schedule: Q04DX002 (ip), vehicle: saline with Tween-80

Measured: T/C

C=C1C(C(=O)OC)=NNc2c(C(N)=O)ncn21
inactive: dose: 25.0 mg/kg/injection, schedule: Q01DX001 (ip), vehicle: saline 101 % of control | dose: 50.0 mg/kg/injection, schedule: Q01DX001 (ip), vehicle: saline 102 % of control | dose: 100.0 mg/kg/injection, schedule: Q01DX001 (ip), vehicle: Klucel (hydroxypropylcellulose) (HPC) 98 % of control | dose: 200.0 mg/kg/injection, schedule: Q01DX001 (ip), vehicle: Klucel (hydroxypropylcellulose) (HPC) 105 % of control | dose: 400.0 mg/kg/injection, schedule: Q01DX001 (ip), vehicle: saline 100 % of control

CC1=CC(OC(C)C)OC1=O (stereo not drawn)
inactive: dose: 50.0 mg/kg/injection, schedule: Q01DX005 (ip), vehicle: saline 108 % of control | dose: 100.0 mg/kg/injection, schedule: Q01DX005 (ip), vehicle: saline 110 % of control | dose: 200.0 mg/kg/injection, schedule: Q01DX005 (ip), vehicle: saline 110 % of control

O=C(NC(Cc1ccc(Br)cc1)C(=O)O)c1ccc(I)cc1 (stereo not drawn)
inactive: [1] 98 % of control | [2] 98 % of control | [3] 107 % of control

CCOC(=O)C(CCBr)SC (stereo not drawn)
inactive: [4] 99 % of control | [5] 100 % of control | [6] 99 % of control

O=C(Cc1n[nH]c(=S)nc1CC(=O)c1ccccc1)c1ccccc1
inactive: [7] 98 % of control | [8] 97 % of control | [9] 105 % of control

CC(C)c1cc2c(cc1O)C[C@@]1(O)CCCC(C)(C)C1CC2 (stereo partly drawn)
inactive: dose: 7.0 mg/kg/injection, schedule: Q01DX005 (ip), vehicle: other 100 % of control | dose: 14.0 mg/kg/injection, schedule: Q01DX005 (ip), vehicle: other 100 % of control | dose: 28.0 mg/kg/injection, schedule: Q01DX005 (ip), vehicle: other 104 % of control | dose: 56.0 mg/kg/injection, schedule: Q01DX005 (ip), vehicle: other 99 % of control

CCCCCCC(=O)/C=C/c1cccc(OC)c1OC
inactive: [5] 99 % of control | [6] 107 % of control | [10] 105 % of control

C=CCN1CCc2c([nH]c3cc(OC)ccc23)C1C (stereo not drawn)
inactive: dose: 9.0 mg/kg/injection, schedule: Q01DX005 (ip), vehicle: Klucel (hydroxypropylcellulose) (HPC) 95 % of control | dose: 18.0 mg/kg/injection, schedule: Q01DX005 (ip), vehicle: Klucel (hydroxypropylcellulose) (HPC) 94 % of control | dose: 36.0 mg/kg/injection, schedule: Q01DX005 (ip), vehicle: Klucel (hydroxypropylcellulose) (HPC) 89 % of control | dose: 72.0 mg/kg/injection, schedule: Q01DX005 (ip), vehicle: Klucel (hydroxypropylcellulose) (HPC) 94 % of control | dose: 144.0 mg/kg/injection, schedule: Q01DX005 (ip), vehicle: Klucel (hydroxypropylcellulose) (HPC) 94 % of control

COC(SC)(SC)c1cc(-c2c(Cl)cccc2Cl)no1
inactive: [7] 101 % of control | [8] 101 % of control | [9] 103 % of control

NC=NCC(=O)O
inactive: dose: 50.0 mg/kg/injection, schedule: Q01DX009 (ip), vehicle: saline 96 % of control | dose: 100.0 mg/kg/injection, schedule: Q01DX009 (ip), vehicle: saline 100 % of control | dose: 200.0 mg/kg/injection, schedule: Q01DX009 (ip), vehicle: saline 99 % of control

O=[N+]([O-])c1ccc(-c2cn3nc(-c4ccccc4)c(-c4ccccc4)nc3n2)cc1
inactive: dose: 12.5 mg/kg/injection, schedule: Q01DX005 (ip), vehicle: Klucel (hydroxypropylcellulose) (HPC) 110 % of control | dose: 25.0 mg/kg/injection, schedule: Q01DX005 (ip), vehicle: Klucel (hydroxypropylcellulose) (HPC) 98 % of control | [1] 108 % of control and 93 % of control

CCOS(=O)(=O)CCl
inactive: [11] 106 % of control | [4] 100 % of control | [5] 107 % of control and 112 % of control

CCOC(CNCc1cc(C)c2[nH]c3ccccc3c2c1C)OCC
inactive: [12] 100 % of control | [13] 102 % of control | [14] 110 % of control

Cc1cc(Cl)cc2c1NC(=O)C2(O)C/C(=N/NC(=O)CC#N)c1cccc([N+](=O)[O-])c1 (stereo not drawn)
inactive: [7] 93 % of control | [13] 103 % of control | [14] 101 % of control

CC(C)(C)C(=O)CC(=O)C(F)(F)C(F)(F)C(F)(F)F.[Ag]
inactive: [15] 119 % of control | [11] 119 % of control | [4] 114 % of control

O=[n+]1c2c(n([O-])c3ccccc31)C(Br)CCCC2Br (stereo not drawn)
inactive: [7] 100 % of control | [8] 95 % of control | [9] 89 % of control

NNC1=Nc2ccccc2N=C2CCSCC21 (stereo not drawn)
inactive: dose: 50.0 mg/kg/injection, schedule: Q01DX009 (ip), vehicle: Klucel (hydroxypropylcellulose) (HPC) 97 % of control | dose: 100.0 mg/kg/injection, schedule: Q01DX009 (ip), vehicle: Klucel (hydroxypropylcellulose) (HPC) 112 % of control | dose: 200.0 mg/kg/injection, schedule: Q01DX009 (ip), vehicle: Klucel (hydroxypropylcellulose) (HPC) 108 % of control

Nn1nnc2cc3c(cc21)nnn3N
inactive: [16] 109 % of control | [17] 98 % of control | [18] 95 % of control

CC(=Nc1ccc(Cl)cc1N)c1c(O)cc(C)oc1=O
inactive: dose: 60.0 mg/kg/injection, schedule: Q01DX005 (ip), vehicle: Klucel (hydroxypropylcellulose) (HPC) 91 % of control | dose: 120.0 mg/kg/injection, schedule: Q01DX005 (ip), vehicle: Klucel (hydroxypropylcellulose) (HPC) 96 % of control

O=C1C2C3C=CC(O3)C2C(=O)N1N=C1CCCCC1 (stereo not drawn)
inactive: [12] 99 % of control | [13] 101 % of control | [14] 101 % of control

CN1C2=C(C(=O)CC2)C(c2ccccc2)C2=C1CCC2=O
inactive: dose: 100.0 mg/kg/injection, schedule: Q01DX001 (ip), vehicle: saline with Tween-80 96 % of control | dose: 200.0 mg/kg/injection, schedule: Q01DX001 (ip), vehicle: saline with Tween-80 96 % of control | dose: 400.0 mg/kg/injection, schedule: Q01DX001 (ip), vehicle: saline with Tween-80 96 % of control

N#CCCNCCC[Si]12OCCN(CCO1)CCO2
inactive: [1] 97 % of control | [2] 100 % of control | [3] 101 % of control and 103 % of control

O=C(Nc1ccc(Br)cn1)c1sc2ccccc2c1Cl
inactive: [15] 99 % of control | [11] 98 % of control | [4] 99 % of control | [6] 92 % of control | [10] 87 % of control

CCn1c2nc(=O)n(C)c(=O)c-2[n+]([O-])c2cc(Br)c(C)cc21
inactive: [16] 96 % of control | [17] 94 % of control | [18] 96 % of control

CC(=O)OCCSSCCOC(C)=O
inactive: [5] 107 % of control | [6] 113 % of control

CCOC(=O)c1c(-c2ccccc2)nn2c1COC(=O)C2
inactive: [12] 103 % of control | [13] 99 % of control | [14] 98 % of control

CCOC(=O)C1(C(=O)OCC)COC(=O)C1
inactive: dose: 16.0 mg/kg/injection, schedule: Q01DX009 (ip), vehicle: saline with Tween-80 97 % of control | dose: 32.0 mg/kg/injection, schedule: Q01DX009 (ip), vehicle: saline with Tween-80 109 % of control | dose: 64.0 mg/kg/injection, schedule: Q01DX009 (ip), vehicle: saline with Tween-80 114 % of control | dose: 128.0 mg/kg/injection, schedule: Q01DX009 (ip), vehicle: saline with Tween-80 97 % of control | dose: 256.0 mg/kg/injection, schedule: Q01DX009 (ip), vehicle: saline with Tween-80 106 % of control

From PubChem BioAssay AID330 (DTP/NCI, 2004)
